Results on 4 molecules are retold here after patent US5045190A, “Chromatography apparatus” (priority 1990, dated 1991).

In data set [1] the target is T1, horse serum cholinesterase (Equus caballus, UniProt P81908).
T1 construct: purchased Sigma Chemicals Co; host or cells: horse serum
In words: Inhibition of horse (serum) cholinesterase, Ki by the method of Dixon. The class given is biochemical. The source says: E. coli beta-galactosidase, chromatographically purified, was obtained from Worthington Biochemicals. P-aminophenyl-beta-D-thiogalactopyranoside (APGP) was purchased from Calbiochem. O-nitrophenyl-beta-D-galactopyranoside (ONPG), bovine trypsin (twice recrystallized), DL-benzoylarginine-p-nitroanilide (DL-BAPNA), p-aminobenzamidine (PAB), cholinesterase (affinity purified from horse serum), procainamide, dithiobisnitrobenzoate, and butyrylthiocholine were obtained from Sigma Chemicals Co. Tresyl chloride (2,2,2-trifluoroethanesulfonyl chloride) was obtained from Fluka and ethyl-(dimethyl-aminopropyl)carbodiimide (EDC) from Aldrich. The surfactant Sandopan JA36 was obtained from Sandoz Chemicals and the surfactant octaethylene glycol n-hexadecyl ether (C16 E8) was obtained from Nikkol Chemicals Co. (Japan). The structures of these surfactants is as shown below: [drawing 1]
The molar extinction coefficient of C16 E8 -pyridinium at 259 nm is […] (by dry weight). The product final yield is 71.9%.

For data set [2] the following is noted: reported pI; cited from earlier work.
A short description of data set [3]: Stability of trypsin solution at 4 degrees Celsius (BAPNA activity assay). The class given is physicochemical. The following applies: 2.9 mg/ml in Buffer A, over three days. As for the experimental part: This example was conducted in accordance with Example 18 above. The activity of trypsin solutions were determined by a method similar to that described by Erlanger et al., Arch. Biochem. Biophys. 95, 271 (1961), using BAPNA as substrate. An aliquot (0.5 milliliter) of the trypsin solution to be assayed was diluted in 1.5 milliliters of 0.05 M Tris-HCl buffer, pH 8.15, containing 0.02 M CaCl2 in a 3.5 milliliter disposable polystyrene cuvette. A 100 microliter aliquot of a 10^-2 M solution of BAPNA in dimethylsulfoxide was then added to this solution. The rate of change in absorbance at 388 nm at 25 degrees Celsius was then measured in a Schimadzu UV 160 spectrophotometer. One unit of activity was defined as the amount of enzyme causing an absorbance change of 0.1 per minute under these conditions.
A solution of trypsin (2.9 milligrams of protein per milliliter) was prepared in Buffer A and several activity assays were made over the course of three days to determine its stability at 4 degrees Celsius. […] In this case the eluted peaks were collected and assayed for enzymatic activity.

T1 sequence (P81908 whole entry): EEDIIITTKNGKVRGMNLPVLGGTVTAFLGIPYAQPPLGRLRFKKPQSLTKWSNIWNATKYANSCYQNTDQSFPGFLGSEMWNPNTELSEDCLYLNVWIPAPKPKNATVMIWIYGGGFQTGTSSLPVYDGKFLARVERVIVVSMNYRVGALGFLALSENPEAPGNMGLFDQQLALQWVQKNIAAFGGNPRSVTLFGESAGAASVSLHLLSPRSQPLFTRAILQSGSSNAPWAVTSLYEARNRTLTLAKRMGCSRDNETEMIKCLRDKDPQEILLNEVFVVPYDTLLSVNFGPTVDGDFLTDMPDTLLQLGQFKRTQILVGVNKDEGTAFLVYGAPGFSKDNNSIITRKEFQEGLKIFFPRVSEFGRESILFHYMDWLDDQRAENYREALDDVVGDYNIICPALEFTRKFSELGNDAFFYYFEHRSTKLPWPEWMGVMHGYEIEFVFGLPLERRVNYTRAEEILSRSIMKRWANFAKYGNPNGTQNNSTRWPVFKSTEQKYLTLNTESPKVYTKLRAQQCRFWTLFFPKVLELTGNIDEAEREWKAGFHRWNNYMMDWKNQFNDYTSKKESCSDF

With `CCCCCCCCCCCCCCCCOCCOCCOCCOCCOCCOCCOCCOCC[n+]1ccccc1` [C16 E8 -pyridinium, N-(n-hexadecyloctaethoxy)pyridinium], the Ki (usually a measure of affinity in units of concentration, obtained from inhibition or displacement) in data set [1] (horse serum cholinesterase, method of Dixon, read-out: Ki toward horse serum cholinesterase) was 0.514 µM. Besides, in data set [1] (surface active HPLC peak, retention time 127.5 minutes), the “inhibition of the enzymatic activity of horse cholinesterase” value was “significantly inhibits”.
Consider `CCCCCCCCCCCCCCCCOCCOCCOCCOCCOCCOCCOCCOCCO` [Unmodified surfactant, octaethylene glycol n-hexadecyl ether, reference compound], for which the “effect on the activity of horse cholinesterase” value in data set [1] (even at concentrations as high as 10^-3 M) is recorded as “does not have any effect”.
Regarding “Lysozyme: test protein, isoelectric point (pI) of 11.0”, the “isoelectric point (pI)” value in data set [2] is reported as 11.0.

B1: trypsin: bovine trypsin (twice recrystallized) (protein, UniProt P00760 24-246, looked up)
Serine protease 1: IVGGYTCGANTVPYQVSLNSGYHFCGGSLINSQWVVSAAHCYKSGIQVRLGEDNINVVEGNEQFISASKSIVHPSYNSNTLNNDIMLIKLKSAASLNSRVASISLPTSCASAGTQCLISGWGNTKSSGTSYPDVLKCLKAPILSDSSCKSAYPGQITSNMFCAGYLEGGKDSCQGDSGGPVVCSGKLQGIVSWGSGCAQKNKPGVYTKVCNYVSWIKQTIASN
For B1, in data set [3], the “loss in tryptic activity (stability of solution)” value is on record as “No significant loss in tryptic activity was observed”.
